Patent US20160106719A1, “Transplantation Adjuvant in Cell Therapy Using Neural Progenitor Cells” (SUMITOMO DAINIPPON PHARMA CO., LTD., priority 2013, published 2016)

How the values were obtained:
[1] = system: re-aggregated PSA-NCAM+ cells (neural progenitor cells derived from mouse iPS cell line 440A3); assay: In vitro differentiation of mouse iPS cell-derived neural progenitor cells into dopaminergic neurons (immunocytochemistry for marker molecules); type: cell-based
Method: DMEM contained 1% fetal bovine serum (FBS), 5% knockout serum replacement (KSR; manufactured by Invitrogen), 0.1 mM non-essential amino acids, 1 mM sodium pyruvate, 0.1 mM 2-mercaptoethanol (2-ME; manufactured by Invitrogen), 2000 U/ml leukemia inhibitory factor (manufactured by Invitrogen), and 1.5 μg/ml puromycin. In order to differentiate and induce the iPS cells into neural cells, serum-free floating culture of embryoid bodies-like aggregates (SFEB) was employed. Specifically, aggregates of the 440A3 cells were separated into individual cells by using 0.25% trypsin/1 mM EDTA (ethylenediaminetetraacetic acid), and the resultant cells were seeded in a 96-well low adhesion plate (product name: Lipidure-Coat Plate A-US96, manufactured by NOF Corporation) at a concentration (cell density) of 3000 cells/well. Thereafter, re-aggregation of the 440A3 cells was induced in a differentiation medium containing GMEM (Glasgow Minimum Essential Medium), 5% KSR, 0.1 mM non-essential amino acids, 1 mM sodium pyruvate and 0.1 mM 2-ME, and this day was defined as day 0 (FIG. 1). During this differentiation process, various factors were added to the differentiation medium for inducing midbrain dopaminergic phenotypes as illustrated in FIG. 1. Specifically, from day 3 to day 7 after starting the SFEB, 20 ng/ml of mouse FGF-8b (manufactured by R & D Systems) was added, from day 4 to day 7 after starting the SFEB, 10 ng/ml of recombinant mouse sonic hedgehog (C25I1) N-terminus (manufactured by R & D Systems) was added, and on and after day 7 after starting the SFEB, 1% N-2 supplement (manufactured by Gibco) and 200 nM ascorbic acid were added. The KSR was removed from the differentiation medium on day 7 after starting the SFEB.
On day 9 after starting the SFEB, the 440A3 cells were washed with phosphate buffered saline (PBS(-)) twice. Thereafter, the 440A3 cells were dissociated into single cells by five-minute incubation performed at 37° C. by using Accumax (manufactured by Innovate Cell Technologies, product name). The cells were collected with a FACS buffer. The FACS buffer was constituted by PBS(-) containing 2% FBS, 20 mM D-glucose and 1% penicillin/streptomycin (P/S, manufactured by Invitrogen). The collected cells were mechanically dissociated into a single cell suspension by a gentle pipetting operation.
Next, the resultant cells were incubated with a mouse anti-PSA-NCAM antibody (dilution rate of 1:200, manufactured by Millipore) at 4° C. for about 30 minutes. Thereafter, a washing operation using a centrifuge was performed twice, and the resultant cells were further incubated for 30 minutes with a secondary antibody of a donkey anti-mouse IgG (dilution rate of 1:400, manufactured by Invitrogen) labeled with AlexaFluor 594. Dead cells and cell debris were excluded by using 7-aminoactinomycin-D (7-AAD, manufactured by BD Pharmigen) stain. The remaining living cells were suspended again at a final concentration (cell density) of 1×10^7 cells/ml. Cell sorting was conducted by using a FACSAria II cell sorter (manufactured by Becton Dickinson And Company) equipped with a 488 nm argon laser, a 633 nm helium-neon laser, a 100 μm nozzle and a FACSDiva software program. A PSA-NCAM positive rate was determined on the basis of a negative control not using a primary antibody.
After the cell sorting, in order to induce the reaggregation of the cells, a PSA-NCAM^+ cell group was seeded in a DMEM/F12 medium (manufactured by Wako Pure Chemical Industries, Ltd.) in a 96-well plate at a concentration (cell density) of 20000 cells/well. The DMEM/F12 medium contained 1% N-2 supplement, 200 nM ascorbic acid, 2% B27 supplement (manufactured by Invitrogen), 0.5 mM L-glutamine and 1% P/S. In order to prevent apoptosis, a ROCK inhibitor, Y-27632 (manufactured by Wako Pure Chemical Industries, Ltd.), was used at a concentration of 30 μM during the cell sorting process and the following overnight cultivation. […]

[2] = system: TH+ neurons derived from mouse iPS cells; assay: In vitro survival of TH+ neurons with caspase 3 expression as index of apoptosis; type: cell-based; conditions: control 18.0±5.9%; no significant difference among four groups
Method: After the cell sorting, in order to induce the reaggregation of the cells, a PSA-NCAM^+ cell group was seeded in a DMEM/F12 medium (manufactured by Wako Pure Chemical Industries, Ltd.) in a 96-well plate at a concentration (cell density) of 20000 cells/well. The DMEM/F12 medium contained 1% N-2 supplement, 200 nM ascorbic acid, 2% B27 supplement (manufactured by Invitrogen), 0.5 mM L-glutamine and 1% P/S. In order to prevent apoptosis, a ROCK inhibitor, Y-27632 (manufactured by Wako Pure Chemical Industries, Ltd.), was used at a concentration of 30 μM during the cell sorting process and the following overnight cultivation. On day 10 after starting the SFEB, any one of valproic acid (VPA) (manufactured by Sigma-Aldrich), zonisamide (ZNS) sodium salt (manufactured by Sumitomo Dainippon Pharma Co., Ltd.), 17β estradiol (E2) (manufactured by Sigma-Aldrich), a glial cell line derived neurotrophic factor (GDNF) (manufactured by R & D Systems) and PBS(-) was added to the medium for 4 days. Each of VPA, ZNS and E2 was used at three different concentrations. Specifically, the concentration of VPA was 0.01 mM, 0.1 mM or 1 mM, the concentration of ZNS was 1 μM, 10 μM or 100 μM, and the concentration of E2 was 1 nM, 10 nM or 100 nM. GDNF was added at a concentration of […] to be used as a positive control. […]

[3] = system: grafts derived from mouse iPS cells; assay: Transplantation experiment of mouse iPS cell-derived dopamine neural progenitor cells into striatum of SD rats (immunohistochemistry of grafts); type: in vivo; conditions: four weeks after transplantation
Method: Ten-week-old Sprague-Dawley rats (SD rats, available from Shimizu Laboratory Supplies Co., Ltd.) were handled in accordance with the Guidelines for Animal Experiments of Kyoto University. Each SD rat was anesthetized, and donor cells were transplanted by stereotaxic injection into striatums on both sides. Two cell aggregates (containing 3.1×10^5 cells on average) obtained on day 9 after starting the SFEB were collected in 1 μl of PBS(-) so as to be used as the donor cells for the transplantation in each tract. To the PBS(-), Y-27632 was added at a final concentration of […]. Thereafter, intraperitoneal injection of VPA (150 mg/kg/day), ZNS sodium salt (30 mg/kg/day), E2 (80 μM/kg/day) or a saline was conducted from two days before transplanting the donor cells until a day of necropsy. For immunosuppression, cyclosporin A (CsA, manufactured by Wako Pure Chemical Industries, Ltd.) was administered to all the SD rats at a daily dose of 10 mg/kg. Four weeks after the transplantation of the donor cells, the brains of the SD rats were washed and fixed by intracardially perfusing 4% paraformaldehyde under deep anesthesia. On the day of necropsy, a blood sample was collected from each SD rat one hour after the final injection of the test compound or CsA. Such a sample was sent to SRL, Inc. (Tokyo, Japan) where the blood concentration of the administered drug (test compound) was measured.
In an in vitro experiment, a cell aggregate treated with any of the above-described test compounds on day 14 after starting the SFEB was fixed with 4% paraformaldehyde. Thereafter, the fixed cell aggregate was frozen and sliced into thin sections each having a thickness of 10 μM by using a microtome for immunocytochemistry. On the other hand, in an in vivo experiment (transplantation experiment), the brain of a SD rat or a SCID rat was taken out after the transplantation experiment to be fixed again with 4% paraformaldehyde for 2 days. Thereafter, the fixed brain of the SD rat or SCID rat was cryopreserved in 30% sucrose for 3 days, frozen, and sliced into thin sections each having a thickness of 40 μM for immunohistochemistry. The frozen sections of the sphere (spherical cell mass) and the brain were subjected to a permeabilization and blocking treatment in PBS(-) for 1 hour at room temperature to be used as samples. The PBS(-) contained 0.3% Triton-X and 2% donkey serum. Thereafter, each of the sections was incubated overnight together with a primary antibody at 4° C. Primary antibodies used in this example are a rabbit anti-tyrosine hydroxylase antibody (dilution rate of 1:400, TH; manufactured by Millipore), a mouse anti-TH antibody (dilution rate of 1:200, manufactured by Millipore), a sheep anti-TH antibody (dilution rate of 1:400, manufactured by Millipore), a mouse anti-Tubβ3 antibody (dilution rate of 1:1000, Tuj1; manufactured by Covance Inc.), a rat anti-NURR1 antibody (dilution rate of 1:1000, KAN Research Institute, Inc., Kobe, Japan), a rabbit anti-Ki67 antibody (dilution rate of 1:1000, manufactured by Novocastra: NCL-Ki67p), a rabbit anti-caspase 3 antibody (dilution rate of 1:500, manufactured by Santa Cruz Biotechnology, Inc.), a rat anti-M2M6 antibody (dilution rate of 1:50, manufactured by Developmental Study Hybridoma Bank), a mouse anti-Nestin antibody (dilution rate of 1:50; manufactured by Millipore), a rabbit anti-Pitx3 antibody (dilution rate of 1:500; manufactured by Chemicon International Inc.), a goat […] antibody (dilution rate of 1:500, Foxa2; manufactured by Santa Cruz Biotechnology, Inc.), a mouse anti-human Nuclei antibody (dilution rate of 1:1000; manufactured by Millipore), and a mouse anti-NeuN antibody (dilution rate of 1:500, manufactured by Chemicon International Inc.). After washing with PBS (0.05% Tween-20) three times, the resultant sample was incubated with an Alexa Fluor-conjugated secondary antibody for 1 hour at room temperature. […]

[4] = system: grafts derived from human iPS cells; assay: Transplantation experiment of human iPS cell-derived dopamine neural progenitor cells into striatum of SCID rats (immunohistochemistry of grafts); type: in vivo; conditions: ZNS at a high dose i.p., four weeks after transplantation
Method: Twelve-week-old SCID rats (produced by Institute of Laboratory Animals, Graduate School of Medicine, Kyoto University) were handled in accordance with the Guidelines for Animal Experiments of Kyoto University. The SCID rats were anesthetized, and donor cells were transplanted by stereotaxic injection into striatums on both sides. Dopamine neural progenitor cells (2.7×10^5 cells on average) prepared from 1039A1 cell, that is, a human iPS cell line, were collected in 2 μl of PBS(-) so as to be used as the donor cells for the transplantation in each tract. To the PBS(-), […] was added at a final concentration of 30 μM. Thereafter, intraperitoneal injection of VPA (150 mg/kg/day or 600 mg/kg/day, which are sometimes designated respectively as a high dose and a low dose), ZNS sodium salt (30 mg/kg/day or 60 mg/kg/day, which are sometimes designated respectively as a high dose and a low dose), or a saline was conducted from two days before transplanting the donor cells until a day of necropsy. Four weeks after the transplantation of the donor cells, the brains of the SCID rats were washed and fixed by intracardially perfusing 4% paraformaldehyde under deep anesthesia. On the day of necropsy, a blood sample was collected from each SCID rat one hour after the final injection of the test compound, and the blood concentration of the drug (test compound) was measured.
In an in vitro experiment, a cell aggregate treated with any of the above-described test compounds on day 14 after starting the SFEB was fixed with 4% paraformaldehyde. Thereafter, the fixed cell aggregate was frozen and sliced into thin sections each having a thickness of 10 μM by using a microtome for immunocytochemistry. On the other hand, in an in vivo experiment (transplantation experiment), the brain of a SD rat or a SCID rat was taken out after the transplantation experiment to be fixed again with 4% paraformaldehyde for 2 days. […]

[5] = ddA or ICI singly added to cells, vs control

C[C@]12CC[C@@H]3c4ccc(O)cc4CC[C@H]3[C@@H]1CC[C@@H]2O [E2, 17β estradiol]
ratio of TH+ cells ([1]; E2 10 nM, day 10 to 14, control 5.2±1.1%): 12.2±2.3%
ratio of dopaminergic neurons undergoing apoptosis (TH+ neurons expressing caspase 3) [2]: low

C[C@]12CC[C@@H]3c4ccc(O)cc4C[C@@H](CCCCCCCCC[S+]([O-])CCCC(F)(F)C(F)(F)F)[C@H]3[C@@H]1CC[C@@H]2O (stereo partly drawn) [ICI, ICI182780]
ratios of increase in the TH+ cells ([1]; 2 μM ICI added to 10 nM E2): remarkably reduced
ratio of TH+ cells [1, 5]: not changed as compared with that of the control

NS(=O)(=O)Cc1noc2ccccc12 [ZNS, 1,2-benzisoxazole-3-methanesulfonamide]
ratio of the differentiation of the transplanted NPC into neurons (NeuN+) ([3]; ZNS sodium salt 30 mg/kg/day i.p., vs control): almost equivalent to that of a control
ratio of TH+ cells that were FOXA2+ ([3]; VPA 150 mg/kg/day or ZNS 30 mg/kg/day i.p., control 24.7±9.3%): 80.4±21.1%
number of midbrain dopaminergic neurons (TH+ FOXA2+) in a graft ([3]; VPA 150 mg/kg/day or ZNS 30 mg/kg/day i.p., control 97±76 cells): 835±540 cells
ratio of TH+ cells that were FOXA2+ ([4]; control 76.3±9.7%): 91.8±6.2%
number of midbrain dopaminergic neurons (TH+ FOXA2+) in a graft ([4]; control 2297±1116 cells): 5889±1821 cells
number of TH+ cells in a graft ([4]; control 3026±1349 cells): 6480±2145 cells

C[C@H]1O[C@@H](n2cnc3c(N)ncnc32)C[C@@H]1O [ddA, 2,5-dideoxyadenosine]
ratios of increase in the TH+ cells ([1]; 100 μM ddA added to 0.1 mM VPA): remarkably reduced
ratio of TH+ cells [1, 5]: not changed as compared with that of the control
